For one test, the system named is mu opiate receptor (MOR). Description: MOR agonist activity using [35S]GTPγS binding assay in striatal membranes. The settings on record: 0.1 μM compound. The format is biochemical. In outline:
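Striatal membranes (200 μg) were preincubated 5 min at 30 °C in HEPES pH 7.5 with 100 mM NaCl, 1 mM MgCl2 and 0.5 nM [35S]GTPγS, then 5 min more with 0.1–10 μM compound. Gαo was immunoprecipitated and bound radioactivity counted by scintillation.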
As to `CC1CCC(C(C)C)C(OCC(O)Cn2cccc2)C1` (stereo not drawn) [Compound A0038], the “MOR agonist activity ([35S]GTPγS binding), FLNA-Binding Compound as Agonist 0.1 μM” value was determined as 176.7%.
The same measure, in the same setting: for `CC1CCC(C(C)C)C(OCC(O)CN2CCCC2)C1` (stereo not drawn) [Compound A0001] the value was 94.3%; for `CC1CCC(C(C)C)C(OCC(O)CN2CCOc3ccccc32)C1` (stereo not drawn) [Compound A0066], 151.9%; for `CC1CN(CC(O)COc2ccc(Cl)cc2)CC(C)O1` (stereo not drawn) [Compound A0047], 233.0%.
Still for that read-out and setting: for `CC1CCC(C(C)C)C(OCC(O)CN2CCC(=O)C(C)C2)C1` (stereo not drawn) [Compound A0056] the value was 115.6%; for `CC1CCC(C(C)C)C(OCC(O)CN2CCN(CCN3CCOCC3)CC2)C1` (stereo not drawn) [Compound A0011], 236.3%.

The test is the same for the next values; noted with them: 0.1 μM compound relative to DAMGO.
With `CC1CCC(C(C)C)C(OCC(O)Cn2cccc2)C1` (stereo not drawn) [Compound A0038], the “% DAMGO (0.1 μM)” value is recorded as 90.1%.
On to `CC1CCC(C(C)C)C(OCC(O)CN2CCCC2)C1` (stereo not drawn) [Compound A0001], for which the “% DAMGO (0.1 μM)” value is recorded as 63.1%.
Same read-out and setting: for `CC1CCC(C(C)C)C(OCC(O)CN2CCOc3ccccc32)C1` (stereo not drawn) [Compound A0066] the value was 88.3%; for `CC1CN(CC(O)COc2ccc(Cl)cc2)CC(C)O1` (stereo not drawn) [Compound A0047], 118.8%.
As for `CC1CCC(C(C)C)C(OCC(O)CN2CCC(=O)C(C)C2)C1` (stereo not drawn) [Compound A0056], the “% DAMGO (0.1 μM)” value is 74.1%.
With `CC1CCC(C(C)C)C(OCC(O)CN2CCN(CCN3CCOCC3)CC2)C1` (stereo not drawn) [Compound A0011], the “% DAMGO (0.1 μM)” value is given as 158.2%.

Staying with this test, now noted: 1 μM compound.
Take `CC1CCC(C(C)C)C(OCC(O)Cn2cccc2)C1` (stereo not drawn) [Compound A0038]: the “MOR agonist activity ([35S]GTPγS binding), FLNA-Binding Compound as Agonist 1 μM” value came to 234.5%.
As for `CC1CCC(C(C)C)C(OCC(O)CN2CCCC2)C1` (stereo not drawn) [Compound A0001], the “MOR agonist activity ([35S]GTPγS binding), FLNA-Binding Compound as Agonist 1 μM” value was 181.7%.
`CC1CCC(C(C)C)C(OCC(O)CN2CCOc3ccccc32)C1` (stereo not drawn) [Compound A0066]: the “MOR agonist activity ([35S]GTPγS binding), FLNA-Binding Compound as Agonist 1 μM” value is on record as 195.6%.
Same read-out and setting: for `CC1CN(CC(O)COc2ccc(Cl)cc2)CC(C)O1` (stereo not drawn) [Compound A0047] the value was 255.0%; for `CC1CCC(C(C)C)C(OCC(O)CN2CCC(=O)C(C)C2)C1` (stereo not drawn) [Compound A0056], 129.6%.
With `CC1CCC(C(C)C)C(OCC(O)CN2CCN(CCN3CCOCC3)CC2)C1` (stereo not drawn) [Compound A0011], the “MOR agonist activity ([35S]GTPγS binding), FLNA-Binding Compound as Agonist 1 μM” value is recorded as 287.5%.

Staying with this test, now noted: 1 μM compound + 1 μM β-funaltrexamine.
For the compound `CC1CCC(C(C)C)C(OCC(O)Cn2cccc2)C1` (stereo not drawn) [Compound A0038], the “MOR agonist activity ([35S]GTPγS binding), FLNA-Binding Compound as Agonist 1 μM + BFNA” value (shortened to “MOR agonist activity … as Agonist 1 μM + BFNA”) amounted to 107.0%.
As for `CC1CCC(C(C)C)C(OCC(O)CN2CCCC2)C1` (stereo not drawn) [Compound A0001], the “MOR agonist activity … as Agonist 1 μM + BFNA” value was 22.2%.
On the same count and under the same terms, then `CC1CCC(C(C)C)C(OCC(O)CN2CCOc3ccccc32)C1` (stereo not drawn) [Compound A0066], with 59.2%; and `CC1CN(CC(O)COc2ccc(Cl)cc2)CC(C)O1` (stereo not drawn) [Compound A0047], with 116.5%.
As to `CC1CCC(C(C)C)C(OCC(O)CN2CCC(=O)C(C)C2)C1` (stereo not drawn) [Compound A0056], the “MOR agonist activity … as Agonist 1 μM + BFNA” value was found to be 17.4%.
The same measure, in the same setting: then `CC1CCC(C(C)C)C(OCC(O)CN2CCN(CCN3CCOCC3)CC2)C1` (stereo not drawn) [Compound A0011], with 47.0%.

Still in this test, the particulars now being: 1 μM compound + BFNA relative to DAMGO + BFNA.
With `CC1CCC(C(C)C)C(OCC(O)Cn2cccc2)C1` (stereo not drawn) [Compound A0038], the “% DAMGO + BFNA” value worked out at 144.8%.
Regarding `CC1CCC(C(C)C)C(OCC(O)CN2CCCC2)C1` (stereo not drawn) [Compound A0001], the “% DAMGO + BFNA” value is reported as 83.8%.
Regarding `CC1CCC(C(C)C)C(OCC(O)CN2CCOc3ccccc32)C1` (stereo not drawn) [Compound A0066], the “% DAMGO + BFNA” value worked out at 171.6%.
The same measure, in the same setting: then `CC1CN(CC(O)COc2ccc(Cl)cc2)CC(C)O1` (stereo not drawn) [Compound A0047], with 157.6%; and `CC1CCC(C(C)C)C(OCC(O)CN2CCC(=O)C(C)C2)C1` (stereo not drawn) [Compound A0056], with 43.6%.
Take `CC1CCC(C(C)C)C(OCC(O)CN2CCN(CCN3CCOCC3)CC2)C1` (stereo not drawn) [Compound A0011]: the “% DAMGO + BFNA” value amounted to 177.4%.

Still in this test, the particulars now being: 1 μM compound relative to DAMGO.
Turning to `CC1CCC(C(C)C)C(OCC(O)Cn2cccc2)C1` (stereo not drawn) [Compound A0038], the “% DAMGO (1 μM)” value is reported as 85.0%.
Still for that read-out and setting: for `CC1CCC(C(C)C)C(OCC(O)CN2CCCC2)C1` (stereo not drawn) [Compound A0001] the value was 78.9%; for `CC1CCC(C(C)C)C(OCC(O)CN2CCOc3ccccc32)C1` (stereo not drawn) [Compound A0066], 89.0%; for `CC1CN(CC(O)COc2ccc(Cl)cc2)CC(C)O1` (stereo not drawn) [Compound A0047], 92.4%.
In the case of `CC1CCC(C(C)C)C(OCC(O)CN2CCC(=O)C(C)C2)C1` (stereo not drawn) [Compound A0056], the “% DAMGO (1 μM)” value is listed as 56.2%.
For `CC1CCC(C(C)C)C(OCC(O)CN2CCN(CCN3CCOCC3)CC2)C1` (stereo not drawn) [Compound A0011], the “% DAMGO (1 μM)” value is 124.9%.

The target of a further test is FLNA pentapeptide of SEQ ID NO: 1 (Bn-VAKGL) (Homo sapiens, UniProt P21333). Description: FITC-NLX-based FLNA screening assay (inhibition of FITC-naloxone binding to Bn-VAKGL on streptavidin plates). The settings on record: FLNA-binding compound 0.01 μM; 10 nM FITC-NLX.
On to `CC1CCC(C(C)C)C(OCC(O)CN2CCOc3ccccc32)C1` (stereo not drawn) [Compound A0066], for which the “Percent Binding Inhibition” value was 36.7%.

The same test, now with this note: FLNA-binding compound 0.01 μM; 10 nM FITC-NLX; read-out: Percent Binding Inhibition.
For orientation: inhibition means the percentage by which the read-out fell short of the control. With `CC1CN(CC(O)COc2ccc(Cl)cc2)CC(C)O1` (stereo not drawn) [Compound A0047], the inhibition at 0.01 µM came to 40.9%.
Still for that read-out and setting: for `CC1CCC(C(C)C)C(OCC(O)CN2CCN(CCN3CCOCC3)CC2)C1` (stereo not drawn) [Compound A0011] the value was 45.7%.

Still in this test, the particulars now being: FLNA-binding compound 0.1 μM; 10 nM FITC-NLX.
In the case of `CC1CCC(C(C)C)C(OCC(O)CN2CCOc3ccccc32)C1` (stereo not drawn) [Compound A0066], the “Percent Binding Inhibition” value was determined as 45.4%.

Still in this test, the particulars now being: FLNA-binding compound 0.1 μM; 10 nM FITC-NLX; read-out: Percent Binding Inhibition.
For the compound `CC1CN(CC(O)COc2ccc(Cl)cc2)CC(C)O1` (stereo not drawn) [Compound A0047], the inhibition at 0.1 µM was 42.9%.
The same measure, in the same setting: then `CC1CCC(C(C)C)C(OCC(O)CN2CCN(CCN3CCOCC3)CC2)C1` (stereo not drawn) [Compound A0011], with 51.1%.

Still in this test, the particulars now being: FLNA-binding compound 1 μM; 10 nM FITC-NLX.
In the case of `CC1CCC(C(C)C)C(OCC(O)CN2CCOc3ccccc32)C1` (stereo not drawn) [Compound A0066], the “Percent Binding Inhibition” value was 53.7%.

The same test, now with this note: FLNA-binding compound 1 μM; 10 nM FITC-NLX; read-out: Percent Binding Inhibition.
As for `CC1CN(CC(O)COc2ccc(Cl)cc2)CC(C)O1` (stereo not drawn) [Compound A0047], the inhibition at 1 µM came to 44.5%.
On the same count and under the same terms, then `CC1CCC(C(C)C)C(OCC(O)CN2CCN(CCN3CCOCC3)CC2)C1` (stereo not drawn) [Compound A0011], with 52.8%.

Staying with this test, now noted: read-out: Percent Binding Inhibition, FLNA-binding compound 0.01 μM; 10 nM FITC-NLX.
As for `CC1CCC(C(C)C)C(OCC(O)Cn2cccc2)C1` (stereo not drawn) [Compound A0038], the inhibition at 0.01 µM was found to be 46.4%.
Same read-out and setting: then `CC1CCC(C(C)C)C(OCC(O)CN2CCCC2)C1` (stereo not drawn) [Compound A0001], with 39.7%.
The same measure, in the same setting: then `CC1CCC(C(C)C)C(OCC(O)CN2CCC(=O)C(C)C2)C1` (stereo not drawn) [Compound A0056], with 34.4%.

Staying with this test, now noted: read-out: Percent Binding Inhibition, FLNA-binding compound 0.1 μM; 10 nM FITC-NLX.
Turning to `CC1CCC(C(C)C)C(OCC(O)Cn2cccc2)C1` (stereo not drawn) [Compound A0038], the inhibition at 0.1 µM came out at 52.3%.
Still for that read-out and setting: for `CC1CCC(C(C)C)C(OCC(O)CN2CCCC2)C1` (stereo not drawn) [Compound A0001] the value was 45.6%.
The same measure, in the same setting: for `CC1CCC(C(C)C)C(OCC(O)CN2CCC(=O)C(C)C2)C1` (stereo not drawn) [Compound A0056] the value was 40.9%.

Staying with this test, now noted: read-out: Percent Binding Inhibition, FLNA-binding compound 1 μM; 10 nM FITC-NLX.
Regarding `CC1CCC(C(C)C)C(OCC(O)Cn2cccc2)C1` (stereo not drawn) [Compound A0038], the inhibition at 1 µM was 56.6%.
The same measure, in the same setting: for `CC1CCC(C(C)C)C(OCC(O)CN2CCCC2)C1` (stereo not drawn) [Compound A0001] the value was 52.4%; for `CC1CCC(C(C)C)C(OCC(O)CN2CCC(=O)C(C)C2)C1` (stereo not drawn) [Compound A0056], 41.3%.

The values above are taken from US10363239B2, “Method for inhibiting growth of cancer cells” (Pain Therapeutics, Inc., priority 2013, dated 2019).
